Measurements reported in publication PMC8962514 (ACS infectious diseases, 2022).
Converted amounts (≈) assume the structure as drawn. Non-standard residues stand in square brackets, D forms with d. Residues, ends and D or L forms follow the SMILES beside them. Nspe = C[C@H](NCC(=O)O)c1ccccc1; NDecylGly = CCCCCCCCCCNCC(=O)O; Nlys = NCCCCNCC(=O)O

Legend:
E. cloacae 218R1 = type: cell-based, Enterobacter cloacae; settings: 218R1, 16 h
[1] = system: A. baumannii pre-formed biofilm; test: Minimal biofilm eradication; type: cell-based, Acinetobacter baumannii; settings: 6.25 μg/ml peptoid, relative to PBS, n = 3
E. cloacae biofilm = test: Minimal biofilm inhibition; type: cell-based, Enterobacter cloacae; settings: 1.56 μg/mL peptoid, relative to PBS, n = 3
S. aureus biofilm = test: Minimal biofilm inhibition; type: cell-based, Staphylococcus aureus; settings: 1.56 μg/mL peptoid, relative to PBS, n = 3
P. aeruginosa biofilm = test: Minimal biofilm inhibition; type: cell-based, Pseudomonas aeruginosa; settings: 1.56 μg/mL peptoid, relative to PBS, n = 3
K. pneumoniae biofilm = test: Minimal biofilm inhibition; type: cell-based, Klebsiella pneumoniae; settings: 1.56 μg/mL peptoid, relative to PBS, n = 3
[2] = In vivo toxicity / maximum tolerated dose; settings: mice, Table S3
[3] = Self-assembly in aqueous solution by small angle X-ray scattering; type: physicochemical
P. aeruginosa LESB58 = type: cell-based, Pseudomonas aeruginosa; settings: LESB58, 16 h
S. aureus USA300 LAC [4] = type: cell-based, Staphylococcus aureus; settings: USA300, 16 h
K. pneumoniae KPLN649 = type: cell-based, Klebsiella pneumoniae; settings: KPLN649, 16 h
S. aureus USA300 LAC [5] = test: Subcutaneous abscess infection model; type: in vivo, mice; settings: 1.25 mg/kg for TM8, vs PBS
E. faecium #2-1 = type: cell-based, Enterococcus faecium; settings: #2-1, 16 h
[6] = system: P. aeruginosa LESB58 biofilm; test: Biofilm eradication under host-mimicking conditions, monomicrobial; type: cell-based, Pseudomonas aeruginosa; settings: 31.25 μg/mL peptoid, DMEM-FBS-G, n = 3
[7] = system: S. aureus pre-formed biofilm; test: Minimal biofilm eradication; type: cell-based, Staphylococcus aureus; settings: 12.5 μg/ml peptoid (Figure 4 legend; 6.25 μg/mL), relative to PBS, n = 3
[8] = system: K. pneumoniae pre-formed biofilm; test: Minimal biofilm eradication; type: cell-based, Klebsiella pneumoniae; settings: 12.5 μg/ml peptoid (Figure 4 legend; 6.25 μg/mL), relative to PBS, n = 3
A. baumannii AB5075 = type: cell-based, Acinetobacter baumannii; settings: AB5075, 16 h

In the case of `CCCCCCCCCCNCC(=O)N(CCCCN)CC(=O)N(CC(=O)N(CC(=O)N(CCCCN)CC(=O)N(CC(=O)N(CC(N)=O)[C@@H](C)c1ccccc1)[C@@H](C)c1ccccc1)[C@@H](C)c1ccccc1)[C@@H](C)c1ccccc1` [TM8] (H-[NDecylGly][Nlys][Nspe][Nspe][Nlys][Nspe][Nspe]-NH2), the “Minimum inhibitory concentration (MIC)” value (E. cloacae 218R1) is reported as 12.5 µg/mL (≈ 11.2 µM), the “Reduction of biofilm metabolic activity (TTC reduction)” value [1] is reported as “metabolic activity was reduced” and the “Inhibition of biofilm formation (CV staining)” value (“Inhibition of biofilm formation” for short) (E. cloacae biofilm) is reported as “inhibited biofilm formation”. For the same molecule, the “Inhibition of biofilm formation” value (S. aureus biofilm) was “inhibited biofilm formation”, the “Inhibition of biofilm formation” value (P. aeruginosa biofilm) was “inhibited biofilm formation” and the “Inhibition of biofilm formation” value (K. pneumoniae biofilm) was “inhibited biofilm formation”. For the same molecule, the Maximum tolerated dose [2] was 1.25 mg/kg, the “Eccentricity (ε) of ellipsoidal micelles” value ([3]; SAXS model analysis) was 1.9 and the “Rcore of ellipsoidal micelles” value ([3]; SAXS model analysis) was 10 Å. The “dR (shell) of ellipsoidal micelles” value ([3]; SAXS model analysis) was 9 Å, the “Aggregation number of ellipsoidal micellar assemblies” value ([3]; SAXS, on average) was ~103 peptoids and the “Fraction of larger aggregates” value ([3]; SAXS, upturn at low Q, 4mM, 20°C) was ~ 0.08%. For the same molecule, the “Self-assembled structure (SAXS best fit)” value ([3]; aqueous solution, peptoids 4mM, 20°C, theoretical model analysis) was “ellipsoidal micellar assemblies”, the “Minimum inhibitory concentration (MIC)” value (P. aeruginosa LESB58) was 6.25 µg/mL (≈ 5.6 µM) and the “Minimum inhibitory concentration (MIC)” value (S. aureus USA300 LAC [4]) was 3.13 µg/mL (≈ 2.81 µM). For the same molecule, the “Minimum inhibitory concentration (MIC)” value (K. pneumoniae KPLN649) was 12.5 µg/mL (≈ 11.2 µM), the “Effect on S. aureus abscess size and bacterial burden, in words” value (S. aureus USA300 LAC [5]) was “insignificantly reduced” and the “Minimum inhibitory concentration (MIC)” value (E. faecium #2-1) was 0.78 µg/mL (≈ 0.699 µM). The “Reduction of P. aeruginosa bacterial numbers in biofilm (CFU)” value [6] was 1,000 fold, the “Reduction of biomass of pre-formed biofilm (CV staining)” value [7] was “impacted” and the “Reduction of biomass of pre-formed biofilm (CV staining)” value [8] was “impacted”. For the same molecule, the “Minimum inhibitory concentration (MIC)” value (A. baumannii AB5075) was 3.13 µg/mL (≈ 2.81 µM).
